# Measurements reported in patent publication US20260193226A1, “MICROBIOCIDAL TETRAHYDROISOQUINOLINE DERIVATIVES” (SYNGENTA CROP PROTECTION AG, priority 2022, published 2026).
# Tested on: Mycosphaerella graminicola (Septoria tritici)
# Test: Mycosphaerella graminicola (Septoria tritici) / liquid culture (Septoria blotch)
# Type: cell-based
# Conditions: Zymoseptoria tritici, compared to untreated control
# Method: Example B15: Mycosphaerella graminicola (Septoria tritici)/Liquid Culture (Septoria Blotch) Conidia of the fungus from cryogenic storage are directly mixed into nutrient broth (PDB potato dextrose broth). After placing a (DMSO) solution of test compound into a microtiter plate (96-well format), the nutrient broth containing the fungal spores is added. The test plates are incubated at 24° C. and the inhibition of growth is determined photometrically 4 to 5 days after application.
row,Compound,inhibition of growth at 20 ppm
1,"Cc1c([C@H]2CN(C(=O)NCc3ccc(F)cc3F)[C@@H](C)c3ccccc32)cnn1C (racemic) [Compound P-44, rac-(1S,4S)-N-[(2,4-difluorophenyl)methyl]-4-(1,5-dimethylpyrazol-4-yl)-1-methyl-3,4-dihydro-1H-isoquinoline-2-carboxamide]",≥ 80%
2,"Cc1c(C2CN(C(=O)OCCC3CC3)Cc3ccccc32)cnn1C (stereo not shown) [Compound P-3, 2-cyclopropylethyl 4-(1,5-dimethylpyrazol-4-yl)-3,4-dihydro-1H-isoquinoline-2-carboxylate]",≥ 80%
3,"CCCCCC(=O)N1Cc2ccccc2C(c2cnn(C)c2C)C1 (stereo not shown) [Compound P-5, 1-[4-(1,5-dimethylpyrazol-4-yl)-3,4-dihydro-1H-isoquinolin-2-yl]hexan-1-one]",≥ 80%
4,"CCCCCCC(=O)N1Cc2ccccc2C(C)(c2cnn(C)c2)C1 (stereo not shown) [Compound P-8, 1-[4-methyl-4-(1-methylpyrazol-4-yl)-1,3-dihydroisoquinolin-2-yl]heptan-1-one]",≥ 80%
5,"CCCCCCCCCC(=O)N1Cc2ccccc2C(c2cnn(C)c2C)C1 (stereo not shown) [Compound P-9, 1-[4-(1,5-dimethylpyrazol-4-yl)-3,4-dihydro-1H-isoquinolin-2-yl]decan-1-one]",≥ 80%
6,"Cn1cc(C2(C)CN(C(=O)OCCC3CCCCC3)Cc3ccccc32)cn1 (stereo not shown) [Compound P-12, 2-cyclohexylethyl 4-methyl-4-(1-methylpyrazol-4-yl)-1,3-dihydroisoquinoline-2-carboxylate]",≥ 80%
7,"Cc1c(C2CN(C(=O)COc3ccc(F)cc3F)Cc3ccccc32)cnn1C (stereo not shown) [Compound P-13, 2-(2,4-difluorophenoxy)-1-[4-(1,5-dimethylpyrazol-4-yl)-3,4-dihydro-1H-isoquinolin-2-yl]ethanone]",≥ 80%
8,"Cc1c(C2CN(C(=O)COCc3ccc(F)cc3F)Cc3ccccc32)cnn1C (stereo not shown) [Compound P-15, 2-[(2,4-difluorophenyl)methoxy]-1-[4-(1,5-dimethylpyrazol-4-yl)-3,4-dihydro-1H-isoquinolin-2-yl]ethanone]",≥ 80%
9,"Cc1c(C2CN(C(=O)CCCCC3CCSS3)Cc3ccccc32)cnn1C (stereo not shown) [Compound P-18, 1-[4-(1,5-dimethylpyrazol-4-yl)-3,4-dihydro-1H-isoquinolin-2-yl]-5-(dithiolan-3-yl)pentan-1-one]",≥ 80%
10,"Cc1c(C2CN(C(=O)CCc3ccc(Br)cc3)Cc3ccccc32)cnn1C (stereo not shown) [Compound P-20, 3-(4-bromophenyl)-1-[4-(1,5-dimethylpyrazol-4-yl)-3,4-dihydro-1H-isoquinolin-2-yl]propan-1-one]",≥ 80%
11,"C#CCCCCCC(=O)N1Cc2ccccc2C(c2cnn(C)c2C)C1 (stereo not shown) [Compound P-21, 1-[4-(1,5-dimethylpyrazol-4-yl)-3,4-dihydro-1H-isoquinolin-2-yl]oct-7-yn-1-one]",≥ 80%
12,"Cc1c(C2CN(C(=O)CCc3ccc(Cl)c(Cl)c3)Cc3ccccc32)cnn1C (stereo not shown) [Compound P-23, 3-(3,4-dichlorophenyl)-1-[4-(1,5-dimethylpyrazol-4-yl)-3,4-dihydro-1H-isoquinolin-2-yl]propan-1-one]",≥ 80%
13,"Cc1c(C2CN(C(=O)CCCC=C(F)F)Cc3ccccc32)cnn1C (stereo not shown) [Compound P-24, 1-[4-(1,5-dimethylpyrazol-4-yl)-3,4-dihydro-1H-isoquinolin-2-yl]-6,6-difluoro-hex-5-en-1-one]",≥ 80%
14,"Cc1c(C2CN(C(=O)OCCc3ccc(F)cc3)Cc3ccccc32)cnn1C (stereo not shown) [Compound P-25, 2-(4-fluorophenyl)ethyl 4-(1,5-dimethylpyrazol-4-yl)-3,4-dihydro-1H-isoquinoline-2-carboxylate]",≥ 80%
15,"Cc1c(C2CN(C(=O)NCCC3CCCCCC3)Cc3ccccc32)cnn1C (stereo not shown) [Compound P-32, N-(2-cycloheptylethyl)-4-(1,5-dimethylpyrazol-4-yl)-3,4-dihydro-1H-isoquinoline-2-carboxamide]",≥ 80%
16,"Cc1c(C2CN(C(=O)Nc3nc4ccccc4s3)Cc3ccccc32)cnn1C (stereo not shown) [Compound P-33, N-(1,3-benzothiazol-2-yl)-4-(1,5-dimethylpyrazol-4-yl)-3,4-dihydro-1H-isoquinoline-2-carboxamide]",≥ 80%
17,"Cc1c(C2CN(C(=O)Nc3cc(C(C)(C)C)on3)Cc3ccccc32)cnn1C (stereo not shown) [Compound P-34, N-(5-tert-butylisoxazol-3-yl)-4-(1,5-dimethylpyrazol-4-yl)-3,4-dihydro-1H-isoquinoline-2-carboxamide]",≥ 80%
18,"Cc1nc(NC(=O)N2Cc3ccccc3C(c3cnn(C)c3C)C2)ccc1Cl (stereo not shown) [Compound P-35, N-(5-chloro-6-methyl-2-pyridyl)-4-(1,5-dimethylpyrazol-4-yl)-3,4-dihydro-1H-isoquinoline-2-carboxamide]",≥ 80%
19,"Cc1c(C2CN(C(=O)NCCCC3CCCC3)Cc3ccccc32)cnn1C (stereo not shown) [Compound P-38, N-(3-cyclopentylpropyl)-4-(1,5-dimethylpyrazol-4-yl)-3,4-dihydro-1H-isoquinoline-2-carboxamide]",≥ 80%
20,"Cc1c(C2CN(C(=O)NCCC(C)(C)C3CC3)Cc3ccccc32)cnn1C (stereo not shown) [Compound P-39, N-(3-cyclopropyl-3-methyl-butyl)-4-(1,5-dimethylpyrazol-4-yl)-3,4-dihydro-1H-isoquinoline-2-carboxamide]",≥ 80%
21,"Cc1c(C2CN(C(=O)Nc3ccc(Cl)cc3)Cc3ccccc32)cnn1C (stereo not shown) [Compound P-40, N-(4-chlorophenyl)-4-(1,5-dimethylpyrazol-4-yl)-3,4-dihydro-1H-isoquinoline-2-carboxamide]",≥ 80%
22,"Cc1c(C2CN(C(=O)Nc3ccc(C4CC4)cc3)Cc3ccccc32)cnn1C (stereo not shown) [Compound P-41, N-(4-cyclopropylphenyl)-4-(1,5-dimethylpyrazol-4-yl)-3,4-dihydro-1H-isoquinoline-2-carboxamide]",≥ 80%
23,"Cc1c(C2CN(C(=O)CCCCC3CC3)Cc3ccccc32)cnn1C (stereo not shown) [Compound P-48, 5-cyclopropyl-1-[4-(1,5-dimethylpyrazol-4-yl)-3,4-dihydro-1H-isoquinolin-2-yl]pentan-1-one]",≥ 80%
24,"Cc1c([C@H]2CN(C(=O)NCCCCCF)[C@@H](C)c3ccccc32)cnn1C [Compound P-52, (1S,4S)-4-(1,5-dimethylpyrazol-4-yl)-N-(5-fluoropentyl)-1-methyl-3,4-dihydro-1H-isoquinoline-2-carboxamide]",≥ 80%
25,"Cc1c([C@H]2CN(C(=O)NCCCCC(F)F)[C@@H](C)c3ccccc32)cnn1C [Compound P-53, (1S,4S)-N-(5,5-difluoropentyl)-4-(1,5-dimethylpyrazol-4-yl)-1-methyl-3,4-dihydro-1H-isoquinoline-2-carboxamide]",≥ 80%
